# According to ChEMBL document CHEMBL2440104, “Synthesis and Biological Evaluation of the First Example of NO-Donor Histone Deacetylase Inhibitor” (ACS Med Chem Lett, 2013):
# Activity calls are given as the source filed them. No cut-off for these calls is given here.
# Assays:
# [1] = test system: C2C12; test: Induction of myogenic differentiation in mouse C2C12 cells assessed as MHC-positive fibers at 0.1 uM after 7 days by immunofluorescence microscopy; format: functional, cell-based
# [2] = target: T1, Histone deacetylase (Homo sapiens) (UniProt Q13547+O15379+Q9UBN7+Q92769+Q9UQL6+Q8WUI4+Q9BY41+Q96DB2+P56524+Q9UKV0+Q969S8); test: Effect on HDAC in human HaCaT cells assessed as downregulation of miR-1254 at 10 uM after 1 hr by RT-PCR analysis; format: cell-based
# [3] = test system: HaCaT; test: Induction of NO release in human HaCaT cells at 10 uM after 1 to 5 hrs by DAF-2D-based FACS analysis relative to DMSO-treated control; format: functional, cell-based
# [4] = target: Histone deacetylase 4 (Homo sapiens) (UniProt P56524); test: Induction of HDAC4 nuclear shuttling in human HaCaT cells at 10 uM after 1 hr by immunofluorescence method relative to DMSO-treated control; format: cell-based
# Sequence of Histone deacetylase 4 (Homo sapiens) (P56524 whole entry): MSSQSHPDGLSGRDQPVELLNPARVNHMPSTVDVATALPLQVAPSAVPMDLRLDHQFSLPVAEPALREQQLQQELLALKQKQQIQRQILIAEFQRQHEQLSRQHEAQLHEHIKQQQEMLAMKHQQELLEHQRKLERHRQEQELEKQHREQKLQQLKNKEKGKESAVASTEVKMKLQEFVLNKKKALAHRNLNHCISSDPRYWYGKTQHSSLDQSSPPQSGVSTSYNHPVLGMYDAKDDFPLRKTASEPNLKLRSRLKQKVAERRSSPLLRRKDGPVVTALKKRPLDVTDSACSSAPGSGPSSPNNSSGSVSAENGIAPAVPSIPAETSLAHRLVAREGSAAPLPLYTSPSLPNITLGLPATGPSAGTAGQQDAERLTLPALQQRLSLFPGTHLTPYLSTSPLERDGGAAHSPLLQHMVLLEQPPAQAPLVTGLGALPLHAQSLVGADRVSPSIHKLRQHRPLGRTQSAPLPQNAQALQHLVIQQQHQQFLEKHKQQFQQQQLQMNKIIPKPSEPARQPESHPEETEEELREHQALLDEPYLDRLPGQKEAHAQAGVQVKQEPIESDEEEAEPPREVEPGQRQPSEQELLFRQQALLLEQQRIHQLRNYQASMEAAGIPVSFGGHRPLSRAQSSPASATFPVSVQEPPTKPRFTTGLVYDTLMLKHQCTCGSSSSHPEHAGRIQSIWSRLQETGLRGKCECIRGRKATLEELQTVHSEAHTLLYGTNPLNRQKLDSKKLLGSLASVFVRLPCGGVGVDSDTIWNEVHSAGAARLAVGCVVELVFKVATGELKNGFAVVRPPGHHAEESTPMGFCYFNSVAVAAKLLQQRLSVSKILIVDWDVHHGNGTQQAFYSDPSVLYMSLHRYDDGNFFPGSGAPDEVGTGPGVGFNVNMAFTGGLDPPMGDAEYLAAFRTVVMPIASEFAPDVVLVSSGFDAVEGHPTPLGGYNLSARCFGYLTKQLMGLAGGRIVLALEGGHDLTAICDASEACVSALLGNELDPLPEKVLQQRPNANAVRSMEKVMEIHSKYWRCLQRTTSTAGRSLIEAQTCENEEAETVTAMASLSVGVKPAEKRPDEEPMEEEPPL
# [5] = target: Histone deacetylase 2 (Homo sapiens) (UniProt Q92769); test: Induction of HDAC2 cysteine S-nitrosylation in human HaCaT cells at 10 uM after 1 hr by immunoprecipitation method in prsence of NO scavenger PTIO; format: cell-based
# Sequence of Histone deacetylase 2 (Homo sapiens) (Q92769 whole entry): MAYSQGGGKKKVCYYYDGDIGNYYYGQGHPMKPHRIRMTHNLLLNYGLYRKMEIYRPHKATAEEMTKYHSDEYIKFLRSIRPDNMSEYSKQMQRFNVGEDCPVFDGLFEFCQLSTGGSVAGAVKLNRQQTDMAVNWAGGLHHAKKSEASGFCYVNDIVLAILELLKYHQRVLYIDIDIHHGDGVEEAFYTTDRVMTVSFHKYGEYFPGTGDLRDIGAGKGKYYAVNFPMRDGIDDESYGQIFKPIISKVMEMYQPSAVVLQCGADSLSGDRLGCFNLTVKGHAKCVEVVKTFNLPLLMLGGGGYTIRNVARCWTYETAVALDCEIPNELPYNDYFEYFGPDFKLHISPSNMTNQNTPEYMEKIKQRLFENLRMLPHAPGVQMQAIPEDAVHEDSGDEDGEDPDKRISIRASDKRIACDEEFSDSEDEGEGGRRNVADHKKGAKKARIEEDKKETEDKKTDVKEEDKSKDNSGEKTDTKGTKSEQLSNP
# [6] = target: T1, Histone deacetylase (Homo sapiens); test: Effect on HDAC in human HaCaT cells assessed as upregulation of miR-192# at 10 uM after 1 hr by RT-PCR analysis; format: cell-based
# [7] = target: T1, Histone deacetylase (Homo sapiens); test: Effect on HDAC in human HaCaT cells assessed as downregulation of miR-200a# at 10 uM after 1 hr by RT-PCR analysis; format: cell-based
# [8] = target: T1, Histone deacetylase (Homo sapiens); test: Effect on HDAC in human HaCaT cells assessed as downregulation of miR-106b# at 10 uM after 1 hr by RT-PCR analysis; format: cell-based
# [9] = target: T1, Histone deacetylase (Homo sapiens); test: Effect on HDAC in human HaCaT cells assessed as downregulation of miR-19b-1 at 10 uM after 1 hr by RT-PCR analysis; format: cell-based
# [10] = target: T1, Histone deacetylase (Homo sapiens); test: Effect on HDAC in human HaCaT cells assessed as upregulation of miR-409-3p at 10 uM after 1 hr by RT-PCR analysis; format: cell-based
# [11] = test system: C2C12; test: Induction of myogenic differentiation in mouse C2C12 cells assessed as increase in number of nuclei per fiber at 0.1 uM after 7 days by immunofluorescence microscopy; format: functional, cell-based
# [12] = test system: HaCaT; test: Induction of NO release in human HaCaT cells assessed as Production of [3H]cGMP after 1 hr by liquid scintillation counting; format: functional, cell-based
# [13] = target: T1, Histone deacetylase (Homo sapiens); test: Effect on HDAC in human HaCaT cells assessed as downregulation of miR-378 at 10 uM after 1 hr by RT-PCR analysis; format: cell-based
# [14] = target: T1, Histone deacetylase (Homo sapiens); test: Effect on HDAC in human HaCaT cells assessed as downregulation of miR-33a# at 10 uM after 1 hr by RT-PCR analysis; format: cell-based
# [15] = test system: C2C12; test: Modulation of mouse C2C12 cell proliferation at 0.1 uM after 72 hrs; format: functional, cell-based
# [16] = target: T1, Histone deacetylase (Homo sapiens); conditions: HaCaT, at 1 to 50 µM
# Description: Inhibition of HDAC activity in human HaCaT cell lysate at 1 to 50 uM after 1 hr by colorimetry
# [17] = target: T1, Histone deacetylase (Homo sapiens); test: Effect on HDAC in human HaCaT cells assessed as upregulation of miR-18a# at 10 uM after 1 hr by RT-PCR analysis; format: cell-based
# [18] = target: Histone deacetylase 2 (Homo sapiens) (UniProt Q92769); test: Induction of HDAC2 cysteine S-nitrosylation in human HaCaT cells at 10 uM after 1 hr by immunoprecipitation method; format: cell-based
# [19] = target: T1, Histone deacetylase (Homo sapiens); test: Effect on HDAC in human HaCaT cells assessed as upregulation of miR-1305 at 10 uM after 1 hr by RT-PCR analysis; format: cell-based
# [20] = target: T1, Histone deacetylase (Homo sapiens); test: Effect on HDAC in human HaCaT cells assessed as downregulation of miR-99b# at 10 uM after 1 hr by RT-PCR analysis; format: cell-based
# [21] = target: T1, Histone deacetylase (Homo sapiens); test: Effect on HDAC in human HaCaT cells assessed as downregulation of miR-27a# at 10 uM after 1 hr by RT-PCR analysis; format: cell-based
# [22] = target: T1, Histone deacetylase (Homo sapiens); test: Inhibition of HDAC activity in human HaCaT cell lysate at 50 uM after 1 hr by colorimetry; format: cell-free
# [23] = target: T1, Histone deacetylase (Homo sapiens); test: Effect on HDAC in human HaCaT cells assessed as upregulation of miR-30d# at 10 uM after 1 hr by RT-PCR analysis; format: cell-based
# [24] = target: T1, Histone deacetylase (Homo sapiens); test: Effect on HDAC in human HaCaT cells assessed as downregulation of miR-505# at 10 uM after 1 hr by RT-PCR analysis; format: cell-based
# [25] = target: T1, Histone deacetylase (Homo sapiens); test: Effect on HDAC in human HaCaT cells assessed as upregulation of miR-1296 at 10 uM after 1 hr by RT-PCR analysis; format: cell-based
# [26] = test system: C2C12; test: Increase in mouse C2C12 cell proliferation at 0.1 uM after 72 hrs; format: functional, cell-based
smiles,measurement,setting,value
CN(Cc1ccc(COC(=O)NCc2ccc(C(=O)Nc3ccccc3N)cc2)cn1)Cc1no[n+]([O-])c1C#N,Activity,[1],Active
same,Activity,[2],Active
same,Activity,[3],Active
same,Activity,[4],Active
same,Activity,[5],inactive
same,Activity,[6],Active
same,Activity,[7],Active
same,Activity,[8],Active
same,Activity,[9],Active
same,Activity,[10],Active
same,Activity,[11],Active
same,Activity,[12],Dose-dependent effect
same,Activity,[13],Active
same,Activity,[14],Active
same,Activity,[15],Active
same,inhibition,[16],Active
same,Activity,[17],Active
same,Activity,[18],Active
same,Activity,[19],Active
same,Activity,[20],Active
same,Activity,[21],Active
Nc1ccccc1NC(=O)c1ccc(CNC(=O)OCc2cccnc2)cc1,Activity,[3],inactive
same,Activity,[4],inactive
same,Activity,[15],Active
CN(C)Cc1no[n+]([O-])c1C#N,Activity,[3],Active
same,Activity,[4],Active
same,Activity,[8],Active
same,inhibition,[22],Active
same,Activity,[23],Active
same,Activity,[13],Active
same,Activity,[24],Active
same,Activity,[25],Active
same,Activity,[26],Active
